Experimental data as given in paper PMC3544846, “Triphenylmethane Derivatives Have High In Vitro and In Vivo Activity against the Main Causative Agents of Cutaneous Leishmaniasis” (PLoS ONE, 2013).
“Also recorded” adds a separate entry of the source. One block for each molecule: values may come before it.

What was measured:
[1] = system: L. (L.) amazonensis intracellular amastigotes; experiment: Intracellular amastigote assay, L. (L.) amazonensis in BALB/c peritoneal macrophages; assay type: cell-based; conditions: Leishmania amazonensis, in Mus musculus, 72 h; for IC50: Macrophage, intracellular amastigotes in macrophages
Protocol: (§1) L. (L.) amazonensis and L. (V.) braziliensis promastigotes with 7–8 days and 5–6 days of growth, respectively, were harvested from cultures and added to a fresh Schneider's medium supplemented with 5% FCS, pH 6.0, and incubated at 32°C for 7 days for L. (L.) amazonensis and 4–5 days for L. (V.) braziliensis until a complete transformation to amastigote-like.
(§2) Peritoneal macrophages from BALB/c mice were harvested by washing with ice-cold RPMI 1640 medium, 4 days after induction with a 3% thioglycollate solution. Macrophages were diluted in RPMI 1640 medium (Sigma, Poole, United Kingdom) plus 10% FCS and plated in 24 well plates with a circular cover glass at a plating density of 2×10^5 macrophages/well. Macrophages were allowed to adhere for 2 h at 37°C and 5% CO2, when the medium was replaced by a fresh one and incubated overnight.
Macrophages were infected with amastigote-like parasites from L. (L.) amazonensis or L. (V.) braziliensis. The parasites were counted in a Neubauer's chamber and adjusted to a macrophage-amastigote ratio of 1∶8. Infected cultures were maintained at 37°C and 5% CO2. After 4 h, extracellular parasites were removed by washing, and a fresh medium containing either TPM compounds, no drug, or the reference drug. AmB (Fungizone®-Bristol- Meyers Squibb Pharmaceutics Ltda, Bedford, USA) was the chosen reference drug and was used at 0.2 µg/mL. After 72 h, the cover glass was removed from the well, washed in RPMI 1640 medium, set in microscope blades, fixed with methanol, and stained with Giemsa for evaluation. Under the immersion microscope, infection indexes (number of amastigotes/100× percentage of infected macrophages) were determined by counting the numbers of intracellular amastigotes in 100 macrophages. […] Each point was tested in triplicate and three independent experiments were then performed. Results are presented as mean and 95% CI [25].

[2] = system: L. (V.) braziliensis intracellular amastigotes; experiment: Intracellular amastigote assay, L. (V.) braziliensis in BALB/c peritoneal macrophages; assay type: cell-based, Leishmania (Viannia) braziliensis; conditions: Leishmania braziliensis, in Mus musculus, 72 h
Protocol: as §1, §2
Macrophages were infected with amastigote-like parasites from L. (L.) amazonensis or L. (V.) braziliensis. The parasites were counted in a Neubauer's chamber and adjusted to a macrophage-amastigote ratio of 1∶8. Infected cultures were maintained at 37°C and 5% CO2. […] Under the immersion microscope, infection indexes (number of amastigotes/100× percentage of infected macrophages) were determined by counting the numbers of intracellular amastigotes in 100 macrophages. […]

[3] = Cytotoxicity MTT assay on macrophages; assay type: cell-based; conditions: mouse, BALB/c peritoneal macrophages, 68 h + 4 h
Protocol: To evaluate the toxicity of selected compounds, an in vitro cytotoxicity assay on macrophages from BABL/c mice was performed through 3-(4,5-dimethyithiazol-2-yl)-2,5- diphenyltetrazolium bromide (MTT) (Sigma, Poole, United Kingdom) assay. Briefly, peritoneal macrophages from BALB/c mice were harvested, as described previously and plated in 96-well-flat-bottom microplates at a plating density of 1×10^5 macrophages/well. Macrophages were allowed to adhere for 2 h at 37°C and 5% CO2, at which time the medium was replaced by a fresh one and incubated over night. Then, the cells were exposed to ten points of serial dilution of TPM 1, 2, 6, 9 or GV ([…]), which were used to obtain a curve to determine the IC50. After 68 h of incubation, 10 µL of MTT (10 mg/mL) was added to each well and the plates were further incubated for 4 h. The enzymatic reaction was then stopped by addition of 100 µL of 50% isopropanol–10% sodium dodecyl sulfate solution. The optical density at 570 nm was quantified using an ELISA plate reader (BioSource, Inc., EUA). Three independent experiments, in triplicate, were performed to determine the cytotoxicity and data were expressed as mean and 95% CI. An experiment was also done to control the possibility of dye color interference on MTT assay. […] The optical density at 570 nm was measured using an ELISA plate reader (BioSource, Inc., EUA).

[4] = system: L (L.) amazonensis-infected BALB/c mice; experiment: In vivo topical gel treatment, parasite quantification at the site of infection by limiting dilution; design: species or system Leishmania (Leishmania) amazonensis in BALB/c mice; conditions: twice a day, 20 days; for decrease of parasite burdens versus control / parasite burdens at site of infection (number of parasites): 1% gel; for parasite burdens at site of infection (number of parasites): 3 days after treatment, control group 1×10^7 (Figure 3A); for number of parasites within the lesion: control group 2.2×10^7 (Figure 3B)
Protocol: The formulation of the GV and TPM 6 gel was prepared by mixing equal amounts of a 2% hydroxyethylcellulose gel (HEC; Natrosol 250 HR, Aqualon) and a 2% GV or TPM 6 hydroethanolic solution (mixture ethanol/water 1/5), until a homogeneous preparation had been attained. Therefore, GV and TPM 6 concentration in these formulations was 1%. The gel lower concentrations for dose-response experiments was obtained by diluting the 1% GV gel with 1% HEC gel.
BALB/c mice (females, 5–6 weeks old) were inoculated with 1×10^7 stationary growth phase promastigotes of L (L.) amazonensis through subcutaneous injections at the base of the tail, after trichotomy.
To evaluate the in vivo efficacy of GV and TPM 6, after development of ulcerated lesions (average diameter of 7 to 9 mm), BALB/c mice were divided into three groups. For treatment with TPM 6 and GV, lesions were covered with 50 µl of a gel formulation containing either 1% GV or 1% TPM 6, twice a day, for 20 days, using an Eppendorf pippetor. Control group: animals from control group were treated with the gel formulation without GV or TPM 6 (placebo). The treatment efficacy was evaluated through of the parasite quantification at the site of infection (see below).
Afterwards, a dose-effect study of GV was performed. BALB/c mice, presenting ulcerated lesions (average diameter of 7 to 9 mm), were divided into four groups, according to lesion size, to assure similar average lesion size among treated groups. The GV gel formulation was applied topically at 0.1, 0.5 or 1.0% twice a day, for 20 days. Control group: animals from control group were treated with the gel formulation without GV (placebo). The treatment efficacy was evaluated through of the parasite quantification at the site of infection (see below).
Three days after the interruption of treatment, the number of viable parasites at the site of infection was quantified by a limiting-dilution assay. Skin fragments from ulcerated lesions, were homogenized with a tissue grinder in Schneider's modified medium supplemented with 10% bovine fetal serum and 100 U/mL penicilin and 100 µg/mL streptomycin. Next, the tissue was centrifuged at 50 g for two minutes for sedimentation (Hitachi, Himac). The supernatant was separated and centrifuged again at 1700 g for 15 minutes (Express, Jouan). The pellet formed was resuspended in 1 mL of Schneider's modified medium supplemented with 10% FCS and 1% of a 100 U/mL penicillin and 100 µg/mL streptomycin solution. The homogenate was submitted to serial dilutions in duplicates in sterile 96 well culture plates and incubated at 23°C. Each well was examined for the presence of parasites, and the number of parasites was quantified by the highest dilution at which parasites could grow over a 7-day period. The lowest dilution that parasites were detected was 10^−1, which was considered the limit of quantification.

[5] = system: L. (L.) amazonensis promastigotes; experiment: Promastigotes assay, L. (L.) amazonensis; assay type: cell-based; conditions: Leishmania amazonensis, 48 h incubation, mean of triplicates
Protocol: (§3) Promastigotes of L. (L.) amazonensis (IFLA/BR/1967/PH-8), L. (V.) braziliensis (MHOM/BR/75/M2903), and L. (L.) major (MHOM/IL/80/Friedlin) were maintained at 23°C in Schneider's Drosophila medium (Merck, Germany) supplemented with 20% heat-inactivated fetal calf serum (FCS) (Gibco, Eggenstein, Germany), pH 7.2. The same strain of L. (L.) amazonensis was used for both in vitro and in vivo experiments.
(§4) Promastigotes of L. (L.) amazonensis, L. (V.) braziliensis or L. (L.) major with 3 or 4 days of growth were plated in 24 well plates at a plating density of 1×10^6 parasites/mL in Schneider's medium supplemented with 20% FCS, pH 7.2. Drugs were diluted at the same medium and added to a parasite suspension in different concentrations, in triplicate. After 48 h of incubation, the parasites were counted and compared to the controls containing parasites in the absence of drugs. The drug concentration corresponding to 50% of the parasite growth inhibition was expressed as IC50. Three independent experiments were performed to confirm the results. Data are presented as mean and 95% CI.

[6] = system: L. (L.) major promastigotes; experiment: Promastigotes assay, L. (L.) major; assay type: cell-based; conditions: Leishmania major, 48 h incubation, mean of triplicates
Protocol: as §3, §4

[7] = system: L. (V.) braziliensis promastigotes; experiment: Promastigotes assay, L. (V.) braziliensis; assay type: cell-based, Leishmania (Viannia) braziliensis; conditions: Leishmania braziliensis, 48 h incubation, mean of triplicates
Protocol: as §3, §4

[8] = system: BALB/c mice infected with L. (L.) amazonensis; conditions: intramuscular administration, doses equivalent to human chemotherapy; cited from earlier work
[9] = system: hamsters infected L. (V.) braziliensis; design: method as in PMID 15652330; conditions: intramuscular administration, doses equivalent to human chemotherapy; cited from earlier work
[10] = Peritoneal macrophage, control drug at 0.2 µg/ml, intracellular amastigotes, read-out: mean value of parasite growth inhibition

Molecule: C[C@@H]1[C@H](O)[C@@H](C)/C=C/C=C/C=C/C=C/C=C/C=C/C=C/[C@H](O[C@@H]2O[C@H](C)[C@@H](O)[C@H](N)[C@@H]2O)C[C@@H]2O[C@](O)(C[C@@H](O)C[C@@H](O)[C@H](O)CC[C@@H](O)C[C@@H](O)CC(=O)O[C@H]1C)C[C@H](O)[C@H]2C(=O)O [AmB, amphotericin B]
inhibition at 0.2 µg/mL [1, 10]: 99.5%
inhibition at 0.2 µg/mL [2, 10]: 98%

Molecule: CN(C)c1ccc(C(=C2C=CC(c3cnc(-c4ccc(-c5ncc(-c6ccccc6)o5)cc4)o3)C=C2)c2ccc(N(C)C)cc2)cc1 (stereo not drawn) [TPM 7]
IC50 [5]: > 5 µM

Molecule: CCN(CC)c1ccc(C(=C2C=C(C(c3ccc(Cl)cc3)C(Cl)(Cl)Cl)C=CC2=[Cl+])c2ccc(N(CC)CC)cc2)cc1 (stereo not drawn) [TPM 10]
IC50 [5]: > 4 µM

Molecule: meglumine antimoniate [Glucantime]
reduction in lesions size [8]: did not lead to significant reductions in lesions size
reduction in lesions size [9]: did not lead to significant reductions in lesions size

Continued, in another order:

IC50 [1]: 0.17 µM
IC50 [5]: 0.025 µM
IC50 [6]: 0.034 µM
Molecule: CN(C)c1ccc(C(=C2C=CC(=[N+](C)C)C=C2)c2ccc(N(C)C)cc2)cc1 [GV, gentian violet]
IC50 at 68 h [3]: 4.03 µM
decrease of parasite burdens versus control [4]: complete elimination of parasites
parasite burdens at site of infection (number of parasites) [4]: no parasites were found
number of parasites within the lesion ([4]; GV gel 0.1%): 2.2×10^6
number of parasites within the lesion ([4]; GV gel 0.5%): 2.62×10^5
number of parasites within the lesion ([4]; GV gel 1%): parasites were not detected; also recorded: complete elimination of parasite burden

IC50 [5]: > 1 µM
Molecule: CCN(CC)c1ccc(C(=C2C=C(Cl)C=CC2=[Cl+])c2ccc(N(CC)CC)cc2)cc1 [TPM 3]

IC50 [1]: 0.1 µM
IC50 [5]: 0.031 µM
IC50 [7]: 0.063 µM
IC50 [6]: 0.045 µM
IC50 ([2]; Macrophage, intracellular amastigotes in macrophages): 0.1 µM
Molecule: CCN(CC)c1ccc(C(=C2C=CC(C)C=C2)c2ccc(N(CC)CC)cc2)cc1 (stereo not drawn) [TPM 6]
IC50 at 68 h [3]: 4.16 µM
decrease of parasite burdens versus control [4]: three orders of magnitude
parasite burdens at site of infection (number of parasites) [4]: 1×10^4
